ChEMBL document CHEMBL3045318, “Synthesis and Antimicrobial Evaluation of Some t(3)-Alkyl and t(3),t(5)-Dimethyl-r(2),c(6)-DI-2-Furfurylpiperidin-4-one and its Derivatives” (2005)
Values after ≈ are worked out from the molar mass of the structure shown. Active and inactive are the calls of the source. The calls are words filed in the database; no cut-off is given here.

Columns and labels:
Pseudomonas aeruginosa [1] = assay: Antimicrobial activity against Pseudomonas aeruginosa after 24 hr by serial dilution method; type: functional
Klebsiella pneumoniae [2] = assay: Antimicrobial activity against Klebsiella pneumoniae after 24 hr by serial dilution method; type: functional
Escherichia coli = assay: Antimicrobial activity against Escherichia coli after 24 hr by serial dilution method; type: functional
Enterococcus faecalis [3] = assay: Antimicrobial activity against Enterococcus faecalis after 24 hr by serial dilution method; type: functional
Bacillus subtilis = assay: Antimicrobial activity against Bacillus subtilis after 24 hr by serial dilution method; type: functional
Aspergillus flavus [4] = assay: Antimicrobial activity against Aspergillus flavus after 72 to 96 hr by serial dilution method; type: functional
Aspergillus niger [5] = assay: Antimicrobial activity against Aspergillus niger after 72 to 96 hr by serial dilution method; type: functional
Candida [6] = assay: Antimicrobial activity against Candida-51 after 72 to 96 hr by serial dilution method; type: functional
Candida [7] = assay: Antimicrobial activity against Candida 6 after 72 to 96 hr by serial dilution method; type: functional
Cryptococcus neoformans [8] = assay: Antimicrobial activity against Cryptococcus neoformans after 72 to 96 hr by serial dilution method; type: functional
Aspergillus flavus [9] = assay: Antimicrobial activity against Aspergillus flavus at 200 ug/ml after 72 to 96 hr by serial dilution method; type: functional, organism-based
Aspergillus niger [10] = assay: Antimicrobial activity against Aspergillus niger at 200 ug/ml after 72 to 96 hr by serial dilution method; type: functional, organism-based
Klebsiella pneumoniae [11] = assay: Antimicrobial activity against Klebsiella pneumoniae at 100 ug/ml after 24 hr by serial dilution method; type: functional, organism-based
Cryptococcus neoformans [12] = assay: Antimicrobial activity against Cryptococcus neoformans at 200 ug/ml after 72 to 96 hr by serial dilution method; type: functional, organism-based
Pseudomonas aeruginosa [13] = assay: Antimicrobial activity against Pseudomonas aeruginosa at 100 ug/ml after 24 hr by serial dilution method; type: functional, organism-based
Enterococcus faecalis [14] = assay: Antimicrobial activity against Enterococcus faecalis at 100 ug/ml after 24 hr by serial dilution method; type: functional, organism-based
Cryptococcus neoformans [15] = assay: Antimicrobial activity against Cryptococcus neoformans at 100 ug/ml after 72 to 96 hr by serial dilution method; type: functional, organism-based
Aspergillus niger [16] = assay: Antimicrobial activity against Aspergillus niger at 100 ug/ml after 72 to 96 hr by serial dilution method; type: functional, organism-based
Aspergillus flavus [17] = assay: Antimicrobial activity against Aspergillus flavus at 100 ug/ml after 72 to 96 hr by serial dilution method; type: functional, organism-based

| MIC (Pseudomonas aeruginosa [1]) [µg/mL] | MIC (Klebsiella pneumoniae [2]) [µg/mL] | MIC (Aspergillus niger [5]) [µg/mL] | MIC (Cryptococcus neoformans [8]) [µg/mL] | SMILES | MIC (Escherichia coli) [µg/mL] | MIC (Enterococcus faecalis [3]) [µg/mL] | MIC (Bacillus subtilis) [µg/mL] | MIC (Aspergillus flavus [4]) [µg/mL] | MIC (Candida [6]) [µg/mL] | MIC (Candida [7]) [µg/mL] | inhibition (Aspergillus flavus [9]) | inhibition (Aspergillus niger [10]) | inhibition (Klebsiella pneumoniae [11]) | inhibition (Cryptococcus neoformans [12]) | inhibition (Pseudomonas aeruginosa [13]) | inhibition (Enterococcus faecalis [14]) | inhibition (Cryptococcus neoformans [15]) | inhibition (Aspergillus niger [16]) | inhibition (Aspergillus flavus [17]) |
| --- | --- | --- | --- | --- | --- | --- | --- | --- | --- | --- | --- | --- | --- | --- | --- | --- | --- | --- | --- |
| 25 (≈ 96 µM) | 12.5 (≈ 48 µM) | 100 (≈ 384 µM) | 25 (≈ 96 µM) | CC1/C(=N\O)CC(c2ccco2)NC1c1ccco1 (stereo unspecified) | 12.5 (≈ 48 µM) | 25 (≈ 96 µM) | 25 (≈ 96 µM) | 50 (≈ 192 µM) | 12.5 (≈ 48 µM) | 50 (≈ 192 µM) | – | – | – | – | – | – | – | – | – |
| 50 (≈ 182 µM) | 6.25 (≈ 22.8 µM) | 25 (≈ 91.1 µM) | 6.25 (≈ 22.8 µM) | CC1C(=NO)C(C)C(c2ccco2)NC1c1ccco1 (stereo unspecified) | 25 (≈ 91.1 µM) | 25 (≈ 91.1 µM) | 25 (≈ 91.1 µM) | 12.5 (≈ 45.6 µM) | 12.5 (≈ 45.6 µM) | 12.5 (≈ 45.6 µM) | – | – | – | – | – | – | – | – | – |
| – | – | – | – | CC1C(=O)CC(c2ccco2)NC1c1ccco1 (stereo unspecified) | 50 (≈ 204 µM) | – | 50 (≈ 204 µM) | – | 100 (≈ 408 µM) | 100 (≈ 408 µM) | inactive | inactive | inactive | inactive | inactive | inactive | inactive | inactive | inactive |
| 12.5 (≈ 45.6 µM) | 6.25 (≈ 22.8 µM) | 50 (≈ 182 µM) | 12.5 (≈ 45.6 µM) | CCC1/C(=N\O)CC(c2ccco2)NC1c1ccco1 (stereo unspecified) | 25 (≈ 91.1 µM) | 25 (≈ 91.1 µM) | 25 (≈ 91.1 µM) | 25 (≈ 91.1 µM) | 12.5 (≈ 45.6 µM) | 25 (≈ 91.1 µM) | – | – | – | – | – | – | – | – | – |
| – | – | – | – | CCC1C(=O)CC(c2ccco2)NC1c1ccco1 (stereo unspecified) | 25 (≈ 96.4 µM) | 100 (≈ 386 µM) | 25 (≈ 96.4 µM) | 100 (≈ 386 µM) | 100 (≈ 386 µM) | 50 (≈ 193 µM) | – | inactive | inactive | inactive | inactive | – | inactive | inactive | – |

| SMILES | MIC (Pseudomonas aeruginosa [1]) [µg/mL] | MIC (Klebsiella pneumoniae [2]) [µg/mL] | MIC (Aspergillus niger [5]) [µg/mL] | MIC (Cryptococcus neoformans [8]) [µg/mL] | MIC (Escherichia coli) [µg/mL] | MIC (Enterococcus faecalis [3]) [µg/mL] | MIC (Bacillus subtilis) [µg/mL] | MIC (Aspergillus flavus [4]) [µg/mL] | MIC (Candida [6]) [µg/mL] | MIC (Candida [7]) [µg/mL] | inhibition (Aspergillus flavus [9]) | inhibition (Aspergillus niger [10]) | inhibition (Klebsiella pneumoniae [11]) | inhibition (Cryptococcus neoformans [12]) | inhibition (Pseudomonas aeruginosa [13]) | inhibition (Enterococcus faecalis [14]) | inhibition (Cryptococcus neoformans [15]) | inhibition (Aspergillus niger [16]) | inhibition (Aspergillus flavus [17]) |
| --- | --- | --- | --- | --- | --- | --- | --- | --- | --- | --- | --- | --- | --- | --- | --- | --- | --- | --- | --- |
| CN[C@@H]1[C@H](O[C@H]2[C@H](O[C@H]3[C@H](O)[C@@H](O)[C@H](N=C(N)N)[C@@H](O)[C@@H]3N=C(N)N)O[C@@H](C)[C@]2(O)C=O)O[C@@H](CO)[C@H](O)[C@H]1O [STREPTOMYCIN] | 25 (≈ 43 µM) | 25 (≈ 43 µM) | – | – | 12.5 (≈ 21.5 µM) | 50 (≈ 86 µM) | 12.5 (≈ 21.5 µM) | – | – | – | – | – | – | – | – | – | – | – | – |
| C[C@@H]1[C@H](O)[C@@H](C)/C=C/C=C/C=C/C=C/C=C/C=C/C=C/[C@H](O[C@@H]2O[C@H](C)[C@@H](O)[C@H](N)[C@@H]2O)C[C@@H]2O[C@](O)(C[C@@H](O)C[C@@H](O)[C@H](O)CC[C@@H](O)C[C@@H](O)CC(=O)O[C@H]1C)C[C@H](O)[C@H]2C(=O)O [AMPHOTERICIN B] | – | – | 50 (≈ 54.1 µM) | 25 (≈ 27.1 µM) | – | – | – | 50 (≈ 54.1 µM) | 25 (≈ 27.1 µM) | 25 (≈ 27.1 µM) | – | – | – | – | – | – | – | – | – |
| CC1C(=O)C(C)C(c2ccco2)NC1c1ccco1 (stereo unspecified) | – | 100 (≈ 386 µM) | 100 (≈ 386 µM) | – | 12.5 (≈ 48.2 µM) | 50 (≈ 193 µM) | 12.5 (≈ 48.2 µM) | 50 (≈ 193 µM) | 50 (≈ 193 µM) | 50 (≈ 193 µM) | – | – | – | inactive | inactive | – | inactive | – | – |
